Measurements: ChEMBL document CHEMBL5154681, “Small Amphiphilic Peptides: Activity Against a Broad Range of Drug-Resistant Bacteria and Structural Insight into Membranolytic Properties” (J Med Chem, 2022)
In brackets after ≈: the same amount, converted by molar mass. Square brackets hold non-standard residues; d marks the D form. Peptide text beside a SMILES is read from it. Bip = N[C@@H](Cc1ccc(-c2ccccc2)cc1)C(=O)O; Dip = N[C@H](C(=O)O)C(c1ccccc1)c1ccccc1; 2Nal = N[C@@H](Cc1ccc2ccccc2c1)C(=O)O

Tests used:
[1] = Hemolytic activity in human RBC assessed as hemolysis incubated for 2 hrs by spectrophotometer analysis; format: toxicity, cell-based, Erythrocyte; conditions: human red blood cells (erythrocytes)
Staphylococcus aureus [2] = test: Antibacterial activity against Staphylococcus aureus ATCC 29213 incubated for 24 hrs by microtiter plate method; format: functional; conditions: Staphylococcus aureus, ATCC 29213, read-out: MIC
Escherichia coli = test: Antibacterial activity against Escherichia coli ATCC 25922 incubated for 24 hrs by microtiter plate method; format: functional; conditions: Escherichia coli, ATCC 25922, 24 h, read-out: MIC
Pseudomonas aeruginosa = test: Antibacterial activity against Pseudomonas aeruginosa ATCC 27883 incubated for 24 hrs by microtiter plate method; format: functional; conditions: Pseudomonas aeruginosa, ATCC 27883, 24 h, read-out: MIC
Staphylococcus aureus [3] = test: Antibacterial activity against methicillin resistant Staphylococcus aureus ATCC BAA-1556 incubated for 24 hrs by microtiter plate method; format: functional; conditions: Staphylococcus aureus, ATCC BAA-1556, 24 h, read-out: MIC

Row | SMILES | HC50 at 2 h [1] [µg/mL] | MIC (Staphylococcus aureus [2]) [µg/mL] | MIC (Escherichia coli) [µg/mL] | MIC (Pseudomonas aeruginosa) [µg/mL] | MIC (Staphylococcus aureus [3]) [µg/mL]
1 | NCCCC[C@H](NC(=O)[C@H](CCCCN)NC(=O)[C@H](CCCCN)NC(=O)[C@@H](N)CCCCN)C(=O)N[C@@H](CCCCN)C(=O)N[C@H](C(=O)N[C@H](C(=O)N[C@H](C(=O)O)C(c1ccccc1)c1ccccc1)C(c1ccccc1)c1ccccc1)C(c1ccccc1)c1ccccc1 (H-KKKKK[Dip][Dip][Dip]-OH) | 280 | 50 (≈ 37.6 µM) | > 100 | > 100 | 50 (≈ 37.6 µM)
2 | NCCCC[C@H](NC(=O)[C@H](CCCCN)NC(=O)[C@@H](N)CCCCN)C(=O)N[C@@H](CCCCN)C(=O)N[C@H](C(=O)N[C@H](C(=O)N[C@H](C(=O)O)C(c1ccccc1)c1ccccc1)C(c1ccccc1)c1ccccc1)C(c1ccccc1)c1ccccc1 (H-KKKK[Dip][Dip][Dip]-OH) | 255 | 25 (≈ 20.8 µM) | > 100 | > 100 | 25 (≈ 20.8 µM)
3 | N=C(N)NCCC[C@H](NC(=O)[C@H](CCCNC(=N)N)NC(=O)[C@H](CCCNC(=N)N)NC(=O)[C@H](CCCNC(=N)N)NC(=O)[C@@H](N)CCCNC(=N)N)C(=O)N[C@@H](Cc1ccc2ccccc2c1)C(=O)N[C@@H](Cc1ccc2ccccc2c1)C(=O)N[C@@H](Cc1ccc2ccccc2c1)C(=O)O (H-RRRRR[2Nal][2Nal][2Nal]-OH) | 190 | 6.2 (≈ 4.46 µM) | 25 (≈ 18 µM) | 25 (≈ 18 µM) | 6.2 (≈ 4.46 µM)
4 | N=C(N)NCCC[C@H](NC(=O)[C@H](CCCNC(=N)N)NC(=O)[C@H](CCCNC(=N)N)NC(=O)[C@@H](N)CCCNC(=N)N)C(=O)N[C@@H](CCCNC(=N)N)C(=O)N[C@H](C(=O)N[C@H](C(=O)N[C@H](C(=O)O)C(c1ccccc1)c1ccccc1)C(c1ccccc1)c1ccccc1)C(c1ccccc1)c1ccccc1 (H-RRRRR[Dip][Dip][Dip]-OH) | 165 | 12.5 (≈ 8.51 µM) | 25 (≈ 17 µM) | 50 (≈ 34 µM) | 12.5 (≈ 8.51 µM)
5 | N=C(N)NCCC[C@H](NC(=O)[C@H](CCCNC(=N)N)NC(=O)[C@H](CCCNC(=N)N)NC(=O)[C@@H](N)CCCNC(=N)N)C(=O)N[C@@H](Cc1ccc2ccccc2c1)C(=O)N[C@@H](Cc1ccc2ccccc2c1)C(=O)O (H-RRRR[2Nal][2Nal]-OH) | 180 | 6.2 (≈ 5.98 µM) | 50 (≈ 48.2 µM) | > 100 | 6.2 (≈ 5.98 µM)
6 | N=C(N)NCCC[C@H](NC(=O)[C@H](CCCNC(=N)N)NC(=O)[C@H](CCCNC(=N)N)NC(=O)[C@@H](N)CCCNC(=N)N)C(=O)N[C@@H](Cc1ccc2ccccc2c1)C(=O)N[C@@H](Cc1ccc2ccccc2c1)C(=O)N[C@@H](Cc1ccc2ccccc2c1)C(=O)N[C@@H](Cc1ccc2ccccc2c1)C(=O)O (H-RRRR[2Nal][2Nal][2Nal][2Nal]-OH) | 70 | 12.5 (≈ 8.73 µM) | 50 (≈ 34.9 µM) | > 100 | 12.5 (≈ 8.73 µM)
7 | N=C(N)NCCC[C@H](NC(=O)[C@H](CCCNC(=N)N)NC(=O)[C@H](CCCNC(=N)N)NC(=O)[C@@H](N)CCCNC(=N)N)C(=O)N[C@@H](Cc1ccc(-c2ccccc2)cc1)C(=O)N[C@@H](Cc1ccc(-c2ccccc2)cc1)C(=O)N[C@@H](Cc1ccc(-c2ccccc2)cc1)C(=O)O (H-RRRR[Bip][Bip][Bip]-OH) | – | 6.2 (≈ 4.72 µM) | > 100 | 25 (≈ 19 µM) | 12.5 (≈ 9.52 µM)
8 | N=C(N)NCCC[C@H](NC(=O)[C@H](CCCNC(=N)N)NC(=O)[C@H](CCCNC(=N)N)NC(=O)[C@@H](N)CCCNC(=N)N)C(=O)N[C@@H](Cc1ccc(-c2ccccc2)cc1)C(=O)N[C@@H](Cc1ccc(-c2ccccc2)cc1)C(=O)N[C@@H](Cc1ccc(-c2ccccc2)cc1)C(=O)N[C@@H](Cc1ccc(-c2ccccc2)cc1)C(=O)O (H-RRRR[Bip][Bip][Bip][Bip]-OH) | – | > 100 | > 100 | > 100 | > 100
9 | N=C(N)NCCC[C@H](NC(=O)[C@H](CCCNC(=N)N)NC(=O)[C@@H](N)CCCNC(=N)N)C(=O)N[C@@H](CCCNC(=N)N)C(=O)N[C@H](C(=O)N[C@H](C(=O)O)C(c1ccccc1)c1ccccc1)C(c1ccccc1)c1ccccc1 (H-RRRR[Dip][Dip]-OH) | 185 | 12.5 (≈ 11.5 µM) | 50 (≈ 45.9 µM) | 50 (≈ 45.9 µM) | 12.5 (≈ 11.5 µM)
10 | N=C(N)NCCC[C@H](NC(=O)[C@H](CCCNC(=N)N)NC(=O)[C@@H](N)CCCNC(=N)N)C(=O)N[C@@H](CCCNC(=N)N)C(=O)N[C@H](C(=O)N[C@H](C(=O)N[C@H](C(=O)N[C@H](C(=O)O)C(c1ccccc1)c1ccccc1)C(c1ccccc1)c1ccccc1)C(c1ccccc1)c1ccccc1)C(c1ccccc1)c1ccccc1 (H-RRRR[Dip][Dip][Dip][Dip]-OH) | 75 | 6.2 (≈ 4.04 µM) | 50 (≈ 32.6 µM) | 50 (≈ 32.6 µM) | 12.5 (≈ 8.14 µM)
11 | N=C(N)NCCC[C@H](NC(=O)[C@H](CCCNC(=N)N)NC(=O)[C@@H](N)CCCNC(=N)N)C(=O)N[C@@H](Cc1ccc2ccccc2c1)C(=O)N[C@@H](Cc1ccc2ccccc2c1)C(=O)N[C@@H](Cc1ccc2ccccc2c1)C(=O)O (H-RRR[2Nal][2Nal][2Nal]-OH) | 105 | 6.2 (≈ 5.75 µM) | 12.5 (≈ 11.6 µM) | 25 (≈ 23.2 µM) | 6.2 (≈ 5.75 µM)
12 | N=C(N)NCCC[C@H](NC(=O)[C@H](CCCNC(=N)N)NC(=O)[C@@H](N)CCCNC(=N)N)C(=O)N[C@@H](Cc1ccc(-c2ccccc2)cc1)C(=O)N[C@@H](Cc1ccc(-c2ccccc2)cc1)C(=O)N[C@@H](Cc1ccc(-c2ccccc2)cc1)C(=O)O (H-RRR[Bip][Bip][Bip]-OH) | – | 50 (≈ 43.2 µM) | > 100 | > 100 | 50 (≈ 43.2 µM)
13 | N=C(N)NCCC[C@H](NC(=O)[C@H](CCCNC(=N)N)NC(=O)[C@@H](N)CCCNC(=N)N)C(=O)N[C@H](C(=O)N[C@H](C(=O)N[C@H](C(=O)O)C(c1ccccc1)c1ccccc1)C(c1ccccc1)c1ccccc1)C(c1ccccc1)c1ccccc1 (H-RRR[Dip][Dip][Dip]-OH) | 120 | 6.2 (≈ 5.36 µM) | 6.2 (≈ 5.36 µM) | 25 (≈ 21.6 µM) | 6.2 (≈ 5.36 µM)
14 | N=C(N)NCCC[C@H](NC(=O)[C@H](CCCNC(=N)N)NC(=O)[C@H](Cc1ccc2ccccc2c1)NC(=O)[C@H](Cc1ccc2ccccc2c1)NC(=O)[C@H](CCCNC(=N)N)NC(=O)[C@@H](N)CCCNC(=N)N)C(=O)N[C@@H](Cc1ccc2ccccc2c1)C(=O)O (H-RR[2Nal][2Nal]RR[2Nal]-OH) | 195 | 12.5 (≈ 10.1 µM) | 25 (≈ 20.3 µM) | 25 (≈ 20.3 µM) | 25 (≈ 20.3 µM)
15 | N=C(N)NCCC[C@H](NC(=O)[C@H](CCCNC(=N)N)NC(=O)[C@@H](NC(=O)[C@@H](NC(=O)[C@H](CCCNC(=N)N)NC(=O)[C@@H](N)CCCNC(=N)N)C(c1ccccc1)c1ccccc1)C(c1ccccc1)c1ccccc1)C(=O)N[C@H](C(=O)O)C(c1ccccc1)c1ccccc1 (H-RR[Dip][Dip]RR[Dip]-OH) | 240 | 12.5 (≈ 9.52 µM) | 25 (≈ 19 µM) | 25 (≈ 19 µM) | 12.5 (≈ 9.52 µM)
16 | N=C(N)NCCC[C@H](NC(=O)[C@H](Cc1ccc2ccccc2c1)NC(=O)[C@H](Cc1ccc2ccccc2c1)NC(=O)[C@H](CCCNC(=N)N)NC(=O)[C@H](CCCNC(=N)N)NC(=O)[C@H](Cc1ccc2ccccc2c1)NC(=O)[C@@H](N)CCCNC(=N)N)C(=O)O (H-R[2Nal]RR[2Nal][2Nal]R-OH) | 205 | 12.5 (≈ 10.1 µM) | 25 (≈ 20.3 µM) | 50 (≈ 40.5 µM) | 25 (≈ 20.3 µM)
17 | N=C(N)NCCC[C@@H]1NC(=O)[C@H](CCCNC(=N)N)NC(=O)[C@H](Cc2ccc(-c3ccccc3)cc2)NC(=O)[C@H](Cc2ccc(-c3ccccc3)cc2)NC(=O)[C@H](Cc2ccc(-c3ccccc3)cc2)NC(=O)[C@H](CCCNC(=N)N)NC1=O (cyclo([Bip][Bip][Bip]RRR)) | – | 50 (≈ 43.9 µM) | > 100 | > 100 | 50 (≈ 43.9 µM)
18 | N=C(N)NCCC[C@@H]1NC(=O)[C@H](CCCNC(=N)N)NC(=O)[C@H](CCCNC(=N)N)NC(=O)[C@H](Cc2ccc(-c3ccccc3)cc2)NC(=O)[C@H](Cc2ccc(-c3ccccc3)cc2)NC(=O)[C@H](Cc2ccc(-c3ccccc3)cc2)NC(=O)[C@H](CCCNC(=N)N)NC1=O (cyclo([Bip][Bip][Bip]RRRR)) | – | 3.1 (≈ 2.39 µM) | > 100 | 25 (≈ 19.3 µM) | 6.2 (≈ 4.79 µM)
19 | N=C(N)NCCC[C@@H]1NC(=O)[C@H](CCCNC(=N)N)NC(=O)[C@H](CCCNC(=N)N)NC(=O)[C@H](Cc2ccc(-c3ccccc3)cc2)NC(=O)[C@H](Cc2ccc(-c3ccccc3)cc2)NC(=O)[C@H](Cc2ccc(-c3ccccc3)cc2)NC(=O)[C@H](Cc2ccc(-c3ccccc3)cc2)NC(=O)[C@H](CCCNC(=N)N)NC1=O (cyclo([Bip][Bip][Bip][Bip]RRRR)) | – | 50 (≈ 32.9 µM) | > 100 | > 100 | > 100
